Test results from patent US12692238B2, “Substituted pyridazinone herbicides” (FMC CORPORATION, priority 2020, dated 2026).
Where two headings read alike, the source gives them in different places.

What was measured:
Format in all cases: in vivo
corn (Zea mays) = assay: Test A postemergence, corn; settings: Zea mays, post-emergence, 240 h, 10 days; for Corn plant response rating (crop injury, 0 = no effect, 100 = complete kill) at 31 g/ha: 31 g ai/ha; for Corn plant response rating (crop injury, 0 = no effect, 100 = complete kill) at 125 g/ha: 125 g ai/ha
How it was run: (§1)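 Greenhouse herbicide screen: seeded pots sprayed on soil (preemergence) or seedlings at one- to two-leaf stage, 2 to 10 cm (postemergence). Evaluation 10 days later by eye against controls; 100 means complete control, 0 no effect.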

[1] = tested on: redroot pigweed (Amaranthus retroflexus); assay: Test A postemergence, redroot pigweed; settings: 10 days
How it was run: as §1

[2] = tested on: sedge, umbrella (small-flower umbrella sedge, Cyperus difformis); assay: Test B flooded paddy test, sedge, umbrella; settings: Cyperus difformis; 250 g ai/ha, Flood; visually evaluated after 10 to 14 days; read-out: Plant response rating, Sedge, Umbrella (0 to 100 scale where 0 is no effect and 100 is complete control)
How it was run: (§2)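 Visual ratings (0 = no effect to 100 = complete control) were made versus controls 10 to 14 days after treatment. Compounds were added to the floodwater of pots flooded 3 cm above the soil surface when plants reached the 2-leaf stage.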

[3] = tested on: ryegrass, Italian (Italian ryegrass, Lolium multiflorum); assay: Test A postemergence, ryegrass, Italian; settings: Lolium multiflorum, post-emergence, 240 h, 10 days, read-out: Plant response rating, Ryegrass, Italian; for pest or weed control at 31 g/ha: 31 g ai/ha, postemergence, 0 to 100 scale (0 no effect, 100 complete control); for pest or weed control at 125 g/ha: Postemergence, 125 g ai/ha, 0 to 100 scale
How it was run: as §1

[4] = tested on: ducksalad (Heteranthera limosa); assay: Test B flooded paddy test, ducksalad; settings: Heteranthera limosa; 250 g ai/ha, Flood; visually evaluated after 10 to 14 days; read-out: Plant response rating, Ducksalad (0 to 100 scale where 0 is no effect and 100 is complete control)
How it was run: as §2

kochia (Bassia scoparia) = assay: Test A preemergence, kochia; settings: Bassia scoparia, pre-emergence, 240 h, 0 to 100 scale, 10 days, read-out: Plant response rating, Kochia; for pest or weed control at 31 g/ha: 31 g ai/ha; for pest or weed control at 125 g/ha: 125 g ai/ha
How it was run: as §1

[5] = tested on: ryegrass, Italian (Italian ryegrass, Lolium multiflorum); assay: Test A preemergence, ryegrass, Italian; settings: Lolium multiflorum, pre-emergence, 240 h, 0 to 100 scale, 10 days, read-out: Plant response rating, Ryegrass, Italian; for pest or weed control at 31 g/ha: 31 g ai/ha; for pest or weed control at 125 g/ha: 125 g ai/ha
How it was run: as §1

[6] = tested on: barnyardgrass (Echinochloa crus-galli); assay: Test A postemergence, barnyardgrass; settings: Postemergence, 0 to 100 scale, 10 days
How it was run: as §1

[7] = tested on: galium (catchweed bedstraw, Galium aparine); assay: Test A postemergence, galium; settings: Galium, post-emergence, 240 h, 10 days, read-out: Plant response rating, Galium; for pest or weed control at 31 g/ha: 31 g ai/ha, postemergence, 0 to 100 scale (0 no effect, 100 complete control); for pest or weed control at 125 g/ha: Postemergence, 125 g ai/ha, 0 to 100 scale
How it was run: as §1

[8] = tested on: barnyardgrass (Echinochloa crus-galli); assay: Test A preemergence, barnyardgrass; settings: 10 days
How it was run: as §1

[9] = tested on: redroot pigweed (Amaranthus retroflexus); assay: Test A preemergence, redroot pigweed; settings: 0 to 100 scale, 10 days
How it was run: as §1

[10] = tested on: ragweed (common ragweed, Ambrosia artemisiifolia); assay: Test A postemergence, ragweed; settings: Ambrosia artemisiifolia, post-emergence, 240 h, 10 days, read-out: Plant response rating, Ragweed; for pest or weed control at 31 g/ha: 31 g ai/ha, postemergence, 0 to 100 scale (0 no effect, 100 complete control); for pest or weed control at 125 g/ha: Postemergence, 125 g ai/ha, 0 to 100 scale
How it was run: as §1

[11] = tested on: blackgrass (Alopecurus myosuroides); assay: Test A postemergence, blackgrass; settings: Alopecurus myosuroides, post-emergence, 240 h, 10 days, read-out: Plant response rating, Blackgrass; for pest or weed control at 31 g/ha: 31 g ai/ha; for pest or weed control at 125 g/ha: 125 g ai/ha
How it was run: as §1

[12] = tested on: ragweed (common ragweed, Ambrosia artemisiifolia); assay: Test A preemergence, ragweed; settings: Ambrosia artemisiifolia, pre-emergence, 240 h, 0 to 100 scale, 10 days, read-out: Plant response rating, Ragweed; for pest or weed control at 31 g/ha: 31 g ai/ha; for pest or weed control at 125 g/ha: 125 g ai/ha
How it was run: as §1

[13] = tested on: foxtail, giant (giant foxtail, Setaria faberi); assay: Test A preemergence, foxtail, giant; settings: Setaria faberi, pre-emergence, 240 h, 0 to 100 scale, 10 days, read-out: Plant response rating, Foxtail, Giant; for pest or weed control at 31 g/ha: 31 g ai/ha; for pest or weed control at 125 g/ha: 125 g ai/ha
How it was run: as §1

[14] = tested on: foxtail, giant (giant foxtail, Setaria faberi); assay: Test A postemergence, foxtail, giant; settings: Setaria faberi, post-emergence, 240 h, 10 days, read-out: Plant response rating, Foxtail, Giant; for pest or weed control at 31 g/ha: 31 g ai/ha; for pest or weed control at 125 g/ha: 125 g ai/ha
How it was run: as §1

[15] = postemergence, 0 to 100 scale (0 no effect, 100 complete control)

Structure (SMILES)	Corn plant response rating (crop injury, 0 = no effect, 100 = complete kill) at 31 g/ha (corn (Zea mays); Postemergence, 0 to 100 scale) [%]	Corn plant response rating (crop injury, 0 = no effect, 100 = complete kill) at 125 g/ha (corn (Zea mays); Postemergence, 0 to 100 scale) [%]	pest or weed control at 250 g/ha [2] [%]	pest or weed control at 31 g/ha [3] [%]	pest or weed control at 125 g/ha [3] [%]	pest or weed control at 250 g/ha [4] [%]	pest or weed control at 31 g/ha (kochia (Bassia scoparia)) [%]	pest or weed control at 125 g/ha (kochia (Bassia scoparia)) [%]	pest or weed control at 31 g/ha [5] [%]	pest or weed control at 125 g/ha [5] [%]	pest or weed control at 31 g/ha [7] [%]	pest or weed control at 125 g/ha [7] [%]	pest or weed control at 31 g/ha [10] [%]	pest or weed control at 125 g/ha [10] [%]	pest or weed control at 31 g/ha ([11]; Postemergence, 0 to 100 scale) [%]	pest or weed control at 125 g/ha ([11]; Postemergence, 0 to 100 scale) [%]	pest or weed control at 31 g/ha [12] [%]	pest or weed control at 125 g/ha [12] [%]	pest or weed control at 31 g/ha [13] [%]	pest or weed control at 125 g/ha [13] [%]	further results
CC(=O)OCOc1c(Cl)nn(C)c(=O)c1-c1c(C)sc2cccc(Cl)c12 [Compound 1, 5-[(acetyloxy)methoxy]-6-chloro-4-(4-chloro-2-methylbenzo[b]thien-3-yl)-2-methyl-3(2H)-pyridazinone]	0	0	0	10	30	0	0	10	0	10	70	90	70	90	0	0	10	20			Plant response rating, Pigweed, Redroot ([1]; 31 g ai/ha, postemergence, 0 to 100 scale (0 no effect, 100 complete control)): 80; Plant response rating, Pigweed, Redroot ([1]; Postemergence, 125 g ai/ha, 0 to 100 scale): 90; Plant response rating, Barnyardgrass ([6]; 31 g ai/ha): 0; Plant response rating, Barnyardgrass ([6]; 125 g ai/ha): 40; Plant response rating, Barnyardgrass ([8]; 31 g ai/ha, 0 to 100 scale): 0; Plant response rating, Barnyardgrass ([8]; 125 g ai/ha, 0 to 100 scale (0 no effect, 100 complete control)): 0; Plant response rating, Pigweed, Redroot ([9]; 31 g ai/ha): 80; Plant response rating, Pigweed, Redroot ([9]; 125 g ai/ha): 90
COC(=O)OCOc1c(C)nn(C)c(=O)c1-c1c2cc(C)ccc2cc2ccc(F)cc12 [Compound 15, [[5-(2-fluoro-7-methyl-9-anthracenyl)-1,6-dihydro-1,3-dimethyl-6-oxo-4-pyridazinyl]oxy]methyl methyl carbonate]		50	90	100	100	95	90	100	50	100	100	100	100	100		10	100	100	100	100	Corn plant response rating (crop injury, 0 = no effect, 100 = complete kill) at 31 g/ha (corn (Zea mays); [15]): 0%; pest or weed control at 31 g/ha [14, 15]: 100%; pest or weed control at 125 g/ha ([14]; Postemergence, 0 to 100 scale): 100%; pest or weed control at 31 g/ha [11, 15]: 0%
COC(=O)OCOc1c(Cl)nn(C)c(=O)c1-c1c2cc(C)ccc2cc2ccc(C)cc12 [Compound 8, [[3-chloro-5-(2,7-dimethyl-9-anthracenyl)-1,6-dihydro-1-methyl-6-oxo-4-pyridazinyl]oxy]methyl methyl carbonate]	0	20	95	10	10	95	60	100	0	10	100	100	100	100	0	0	40	100	30	70	pest or weed control at 31 g/ha ([14]; Postemergence, 0 to 100 scale): 10%; pest or weed control at 125 g/ha ([14]; Postemergence, 0 to 100 scale): 70%
Cc1ccc2cc3ccc(C)cc3c(-c3c(OCOC(=O)C(C)(C)C)c(Cl)nn(C)c3=O)c2c1 [Compound 9, [[3-chloro-5-(2,7-dimethyl-9-anthracenyl)-1,6-dihydro-1-methyl-6-oxo-4-pyridazinyl]oxy]methyl 2,2-dimethylpropanoate]	0	20	100	0	10	100	50	100	0	0	70	100	80	100	0	0	0	60	0	50	pest or weed control at 31 g/ha ([14]; Postemergence, 0 to 100 scale): 20%; pest or weed control at 125 g/ha ([14]; Postemergence, 0 to 100 scale): 40%
